{
  "source": "patent US6841563B1",
  "about": "“Aryloxy propanolamines for improving livestock production” (Eli Lilly and Company, priority 1999, dated 2005)",
  "key": {"[1]": {"experiment": "Intravenous administration to cattle: serum non-esterified fatty acid (NEFA) and serum urea nitrogen (SUN) levels", "format": "in vivo", "source_text": "Intravenous administration of the compounds of the present invention to cattle increases serum non-esterified fatty acids and decreases serum urea. In this Example, angus/angus cross calves, both heifers and steers, weighing approximately 282 pounds (128 kg) initially to 788 pounds (357.8 kg) over the course of these studies, were placed in pens at 5 calves per pen. The cattle were acclimated to the pens for at least 1 week prior to initiating the study.\nCalves were fed ad libitum twice daily, (approximately 6-15 pounds (2.7-6.8 kg)/day). During the treatment day, in the A.M. period, the feeding times were staggered to ensure that all animals were fed approximately one hour before the treatments were administered. During the P.M. treatment period, the cattle were fed immediately after receiving the P.M. injection.\nAfter taking a pretreatment (T=O) blood sample from each animal, a 40 μg per kilogram dose of a test compound was administered intravenously in the jugular vein at 6:30 A.M. and 2:30 P.M. Each test compound was administered at a concentration of 1.00-1.25 mg/ml in a treatment vehicle that was a 50/50 mixture of polyethylene glycol 200/water.\nA blood sample was taken at fifteen minutes post-treatment (T+15 min). The calves were returned to their respective pens until their next treatment, approximately eight hours later. The next morning at 6:30 A.M. a blood sample was collected from all calves at 24 hours post-treatment (T+24 h). All blood samples were analyzed for the non-esterified fatty acid level (NEFA) and serum urea nitrogen level (SUN). The post-treatment NEFA and SUN levels in each individual animal were compared with the levels found before treatment."}, "[2]": {"experiment": "Weight gain, feed efficiency and carcass characteristics, last 14 days of growing period in broiler chickens", "format": "in vivo", "settings": "for Dressing Percentage / Fat Pad Weight / Final Weight / Hot Carcass Weights / Pen Feed Intake / Total 14 day Weight Gain / Viscera Weight / Feed Efficiency F/G: day 35-49; for Feed Efficiency F/G: pen feed intake/total pen weight; for increase in weight gain over control / improvement of feed efficiency versus control: 14-day treatment period", "source_text": "Approximately 1500 Peterson-Hubbard, day-old, male chicks were used in a randomized, complete-block design with 4 treatments (Control, Clenbuterol at 1 PPM, and Compound 6 at 3 and 15 PPM (mg/kg feed)). The testing facility contained 36 pens, divided equally into 6 blocks. Treatments were randomly allotted to pens within each block. Each treatment consisted of 6 pens with 10 birds per pen.\nDay-of-age birds were obtained from Pine Manor Hatchery in Goshen, Ind. Approximately 40 birds per pen were set at random upon receipt. On day 30 of the growout period, all birds were weighed and the 15 birds closest to the block mean were selected. These birds were allowed to acclimate until day 35 of age. On that day, all remaining birds were weighed again, and the 10 birds/pen closest to the block mean were chosen for the treatment phase. Birds were provided ad libitum access to feed and water throughout the trial. All birds were fed a 23% crude protein corn-soy ration from day 1 until day 18 of age. The feed was changed to a 20% crude protein corn-soy ration from day 18 to day 49. The treatment feed was mixed using the same 20% crude protein basal ration. Treatments were administered in the feed from day 35 through day 49. Feed consumption was calculated over the entire 14-day treatment period. Birds were weighed at trial completion (day 49), and transported to Purdue University, West Lafayette, Ind. 47907, U.S.A. meat laboratory for slaughter and carcass measurements on day 50. Weights of the hot carcass, fat pad, and viscera were taken on all animals."}},
  "note": "Marks after values point to notes of the source that are not given here.",
  "data": [
    {"smiles": "CC(C)(Cc1ccc(Oc2ncccc2C(N)=O)cc1)NC[C@H](O)COc1cccc2[nH]ccc12", "note": "[Compound 6, (S)-2-[4-[2-[2-Hydroxy-3-(1H-indol-4-yloxy)propylamino]-2-methylpropyl]-phenoxy]-3-pyridinecarboxamide]", "values": [
      {"measurement": "ΔNEFA 24 Hours", "setting": "[1]; 40 μg per kilogram i.v. twice, T+24 h minus T=0, mean of five animals", "value": -1.44, "unit": "µmol/L"},
      {"measurement": "ΔNEFA 15 Min.", "setting": "[1]; 40 μg per kilogram i.v., T+15 min minus T=0, mean of five animals", "value": 40.7, "unit": "µmol/L"},
      {"measurement": "change in vivo at 0.04 mg/kg", "setting": "[1]; Bos taurus, iv, 40 μg per kilogram i.v. twice, 24 hours post treatment vs baseline T=0, mean of five animals, read-out: Δ% SUN 24 Hours", "value": -47, "unit": "%"},
      {"measurement": "lipolytic effects (non-esterified fatty acid levels)", "setting": "[1]; fifteen minutes and twenty-four hours after administration", "value": "modest lipolytic effects"},
      {"measurement": "anabolic effects (change in serum urea nitrogen levels)", "setting": "[1]; twenty-four hours after administration, compared with the corresponding carboxamide regioisomers", "value": "significantly greater"},
      {"measurement": "Dressing Percentage", "setting": "[2]; 3 PPM in feed", "value": "72.43*"},
      {"measurement": "Fat Pad Weight", "setting": "[2]; 3 PPM in feed", "value": 28.67, "unit": "g"},
      {"measurement": "Final Weight", "setting": "[2]; 3 PPM in feed", "value": 3.02, "unit": "kg"},
      {"measurement": "Hot Carcass Weights", "setting": "[2]; 3 PPM in feed", "value": "2175.69* g"},
      {"measurement": "Pen Feed Intake", "setting": "[2]; 3 PPM in feed", "value": 25.74, "unit": "kg"},
      {"measurement": "Total 14 day Weight Gain", "setting": "[2]; 3 PPM in feed", "value": 1.30, "unit": "kg"},
      {"measurement": "Viscera Weight", "setting": "[2]; 3 PPM in feed", "value": 283.04, "unit": "g"},
      {"measurement": "Feed Efficiency F/G", "setting": "[2]; 3 PPM in feed", "value": 1.95},
      {"measurement": "increase in weight gain over control", "setting": "[2]; 3 PPM, P=0.0987", "value": 3.17, "unit": "%"},
      {"measurement": "improvement of feed efficiency versus control", "setting": "[2]; 3 PPM, P=0.2936", "value": 2.50, "unit": "%"},
      {"measurement": "increase in hot carcass weights compared to control", "setting": "[2]; 3 PPM, P=0.0174", "value": 2.50, "unit": "%"},
      {"measurement": "increase in fat pad weight", "setting": "[2]; 3 PPM, P=0.1069", "value": 9.68, "unit": "%"},
      {"measurement": "decrease in viscera weights with respect to control", "setting": "[2]; 3 PPM, P=0.3981", "value": 1.50, "unit": "%"},
      {"measurement": "Dressing Percentage", "setting": "[2]; 15 PPM in feed", "value": "72.63**"},
      {"measurement": "Fat Pad Weight", "setting": "[2]; 15 PPM in feed", "value": 27.21, "unit": "g"},
      {"measurement": "Final Weight", "setting": "[2]; 15 PPM in feed", "value": 3.02, "unit": "kg"},
      {"measurement": "Hot Carcass Weights", "setting": "[2]; 15 PPM in feed", "value": "2182.55** g"},
      {"measurement": "Pen Feed Intake", "setting": "[2]; 15 PPM in feed", "value": 25.25, "unit": "kg"},
      {"measurement": "Total 14 day Weight Gain", "setting": "[2]; 15 PPM in feed", "value": 1.30, "unit": "kg"},
      {"measurement": "Viscera Weight", "setting": "[2]; 15 PPM in feed", "value": 285.49, "unit": "g"},
      {"measurement": "Feed Efficiency F/G", "setting": "[2]; 15 PPM in feed", "value": 1.94},
      {"measurement": "increase in weight gain over control", "setting": "[2]; 15 PPM, P=0.0756", "value": 3.17, "unit": "%"},
      {"measurement": "improvement of feed efficiency versus control", "setting": "[2]; 15 PPM, P=0.1957", "value": 3.00, "unit": "%"},
      {"measurement": "increase in hot carcass weights compared to control", "setting": "[2]; 15 PPM, P=0.0078", "value": 2.82, "unit": "%"},
      {"measurement": "increase in fat pad weight", "setting": "[2]; 15 PPM, P=0.4814", "value": 4.09, "unit": "%"},
      {"measurement": "decrease in viscera weights with respect to control", "setting": "[2]; 15 PPM, P=0.7279", "value": 0.65, "unit": "%"}
    ]}
  ]
}
